Assay results reported in the supplement of paper PMC11414989.

Experiments:
Conditions in all cases: exposure window: 6 hpf to 120 hpf, static, assay age: 120 hpf (5 dpf)
[1] = tested on: Danio rerio larvae (Tropical 5D); experiment: mean angular velocity of exposed larvae, dark phase (angular velocity (unit not stated)); higher = more movement
Protocol: (§1)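 Larval photomotor response in Tropical 5D wild-type zebrafish. Larvae were statically exposed to each chemical from 6 hpf to 5 dpf in 96-well plates; morphologically abnormal larvae were excluded. At 120 hpf, larvae were tracked with Ethovision XT (25 frames/s) over the 2nd cycle of 3 min light and 3 min dark. Values are the mean movement metric of exposed larvae per phase; same-plate control means (plate-dependent baseline) are given as conditions.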

[2] = tested on: Danio rerio larvae (Tropical 5D); experiment: mean distance moved of exposed larvae, dark phase (µm per frame (1/25 s)); higher = more movement
Protocol: as §1

[3] = tested on: Danio rerio larvae (Tropical 5D); experiment: mean distance moved of exposed larvae, light phase (µm per frame (1/25 s)); higher = more movement
Protocol: as §1

[4] = tested on: Danio rerio larvae (Tropical 5D); experiment: mean angular velocity of exposed larvae, light phase (angular velocity (unit not stated)); higher = more movement
Protocol: as §1

## CCN(CCOP(=O)(O)O)S(=O)(=O)C(F)(F)C(F)(F)C(F)(F)C(F)(F)C(F)(F)C(F)(F)C(F)(F)C(F)(F)F
[1]; 0.25 µM
  mean angular velocity of exposed larvae: 0.809
[2]; 0.25 µM
  mean distance moved of exposed larvae: 23.4
[3]; 0.25 µM
  mean distance moved of exposed larvae: 3.01
[4]; 0.25 µM
  mean angular velocity of exposed larvae: 0.169

## Cc1cccc2c1ccc1ccccc12 [1-Methylphenanthrene]
[1]; 1 µM
  mean angular velocity of exposed larvae: 0.432
[1]; 2.54 µM
  mean angular velocity of exposed larvae: 0.487
[1]; 6.45 µM
  mean angular velocity of exposed larvae: 0.604
[1]; 16.4 µM
  mean angular velocity of exposed larvae: 0.563
[1]; 35 µM
  mean angular velocity of exposed larvae: 0.642
[1]; 74.8 µM
  mean angular velocity of exposed larvae: 0.39
[1]; 100 µM
  mean angular velocity of exposed larvae: 0.294
[2]; 1 µM
  mean distance moved of exposed larvae: 14.6
[2]; 2.54 µM
  mean distance moved of exposed larvae: 16.3
[2]; 6.45 µM
  mean distance moved of exposed larvae: 19.4
[2]; 16.4 µM
  mean distance moved of exposed larvae: 17.5
[2]; 35 µM
  mean distance moved of exposed larvae: 21.2
[2]; 74.8 µM
  mean distance moved of exposed larvae: 12.8
[2]; 100 µM
  mean distance moved of exposed larvae: 10.4
[3]; 1 µM
  mean distance moved of exposed larvae: 5.24
[3]; 2.54 µM
  mean distance moved of exposed larvae: 4.47
[3]; 6.45 µM
  mean distance moved of exposed larvae: 4.85
[3]; 16.4 µM
  mean distance moved of exposed larvae: 5.17
[3]; 35 µM
  mean distance moved of exposed larvae: 4.57
[3]; 74.8 µM
  mean distance moved of exposed larvae: 4.58
[3]; 100 µM
  mean distance moved of exposed larvae: 5.53
[4]; 1 µM
  mean angular velocity of exposed larvae: 0.118
[4]; 2.54 µM
  mean angular velocity of exposed larvae: 0.119
[4]; 6.45 µM
  mean angular velocity of exposed larvae: 0.139
[4]; 16.4 µM
  mean angular velocity of exposed larvae: 0.133
[4]; 35 µM
  mean angular velocity of exposed larvae: 0.126
[4]; 74.8 µM
  mean angular velocity of exposed larvae: 0.12
[4]; 100 µM
  mean angular velocity of exposed larvae: 0.143

## NC(O)(C(F)(F)F)C(F)(F)F [2-Aminohexafluoropropan-2-ol]
[1]; 0.015 µM
  mean angular velocity of exposed larvae: 0.62
[1]; 0.046 µM
  mean angular velocity of exposed larvae: 0.444
[1]; 0.14 µM
  mean angular velocity of exposed larvae: 0.508
[1]; 0.41 µM
  mean angular velocity of exposed larvae: 0.552
[1]; 1.23 µM
  mean angular velocity of exposed larvae: 0.344
[1]; 3.7 µM
  mean angular velocity of exposed larvae: 0.702
[1]; 11.1 µM
  mean angular velocity of exposed larvae: 0.423
[1]; 33.3 µM
  mean angular velocity of exposed larvae: 0.702
[1]; 66.5 µM
  mean angular velocity of exposed larvae: 0.491
[1]; 100 µM
  mean angular velocity of exposed larvae: 0.969
[2]; 0.015 µM
  mean distance moved of exposed larvae: 17.5
[2]; 0.046 µM
  mean distance moved of exposed larvae: 11.4
[2]; 0.14 µM
  mean distance moved of exposed larvae: 13
[2]; 0.41 µM
  mean distance moved of exposed larvae: 13
[2]; 1.23 µM
  mean distance moved of exposed larvae: 6.93
[2]; 3.7 µM
  mean distance moved of exposed larvae: 18.8
[2]; 11.1 µM
  mean distance moved of exposed larvae: 11.2
[2]; 33.3 µM
  mean distance moved of exposed larvae: 18.3
[2]; 66.5 µM
  mean distance moved of exposed larvae: 14.6
[2]; 100 µM
  mean distance moved of exposed larvae: 27.2
[3]; 0.015 µM
  mean distance moved of exposed larvae: 1.1
[3]; 0.046 µM
  mean distance moved of exposed larvae: 0.932
[3]; 0.14 µM
  mean distance moved of exposed larvae: 0.925
[3]; 0.41 µM
  mean distance moved of exposed larvae: 0.917
[3]; 1.23 µM
  mean distance moved of exposed larvae: 0.251
[3]; 3.7 µM
  mean distance moved of exposed larvae: 1.12
[3]; 11.1 µM
  mean distance moved of exposed larvae: 0.717
[3]; 33.3 µM
  mean distance moved of exposed larvae: 1.18
[3]; 66.5 µM
  mean distance moved of exposed larvae: 0.668
[3]; 100 µM
  mean distance moved of exposed larvae: 0.989
[4]; 0.015 µM
  mean angular velocity of exposed larvae: 0.0444
[4]; 0.046 µM
  mean angular velocity of exposed larvae: 0.0195
[4]; 0.14 µM
  mean angular velocity of exposed larvae: 0.0424
[4]; 0.41 µM
  mean angular velocity of exposed larvae: 0.0293
[4]; 1.23 µM
  mean angular velocity of exposed larvae: 0.00969
[4]; 3.7 µM
  mean angular velocity of exposed larvae: 0.0543
[4]; 11.1 µM
  mean angular velocity of exposed larvae: 0.0181
[4]; 33.3 µM
  mean angular velocity of exposed larvae: 0.0369
[4]; 66.5 µM
  mean angular velocity of exposed larvae: 0.0243
[4]; 100 µM
  mean angular velocity of exposed larvae: 0.0458

## Cc1ccc2c(ccc3ccccc32)c1 [2-Methylphenanthrene]
[1]; 1 µM
  mean angular velocity of exposed larvae: 0.536
[1]; 2.54 µM
  mean angular velocity of exposed larvae: 0.424
[1]; 6.45 µM
  mean angular velocity of exposed larvae: 0.539
[1]; 16.4 µM
  mean angular velocity of exposed larvae: 0.592
[1]; 35 µM
  mean angular velocity of exposed larvae: 0.507
[1]; 74.8 µM
  mean angular velocity of exposed larvae: 0.473
[1]; 100 µM
  mean angular velocity of exposed larvae: 0.439
[2]; 1 µM
  mean distance moved of exposed larvae: 16.4
[2]; 2.54 µM
  mean distance moved of exposed larvae: 12.1
[2]; 6.45 µM
  mean distance moved of exposed larvae: 15
[2]; 16.4 µM
  mean distance moved of exposed larvae: 15.5
[2]; 35 µM
  mean distance moved of exposed larvae: 16.9
[2]; 74.8 µM
  mean distance moved of exposed larvae: 13.3
[2]; 100 µM
  mean distance moved of exposed larvae: 13.2
[3]; 1 µM
  mean distance moved of exposed larvae: 2.38
[3]; 2.54 µM
  mean distance moved of exposed larvae: 1.4
[3]; 6.45 µM
  mean distance moved of exposed larvae: 1.73
[3]; 16.4 µM
  mean distance moved of exposed larvae: 2.82
[3]; 35 µM
  mean distance moved of exposed larvae: 1.74
[3]; 74.8 µM
  mean distance moved of exposed larvae: 2.4
[3]; 100 µM
  mean distance moved of exposed larvae: 1.83
[4]; 1 µM
  mean angular velocity of exposed larvae: 0.0841
[4]; 2.54 µM
  mean angular velocity of exposed larvae: 0.0709
[4]; 6.45 µM
  mean angular velocity of exposed larvae: 0.0511
[4]; 16.4 µM
  mean angular velocity of exposed larvae: 0.126
[4]; 35 µM
  mean angular velocity of exposed larvae: 0.0754
[4]; 74.8 µM
  mean angular velocity of exposed larvae: 0.0848
[4]; 100 µM
  mean angular velocity of exposed larvae: 0.0583

## O=C(O)CCC(F)(F)C(F)(F)C(F)(F)C(F)(F)C(F)(F)C(F)(F)C(F)(F)F [3-Perfluoroheptyl propanoic acid]
[1]; 0.25 µM
  mean angular velocity of exposed larvae: 0.534
[2]; 0.25 µM
  mean distance moved of exposed larvae: 12.1
[3]; 0.25 µM
  mean distance moved of exposed larvae: 1.75
[4]; 0.25 µM
  mean angular velocity of exposed larvae: 0.0662

## O=C(O)CCC(F)(F)C(F)(F)C(F)(F)C(F)(F)C(F)(F)F [3-Perfluoropentyl propanoic acid]
[1]; 0.25 µM
  mean angular velocity of exposed larvae: 0.61
[2]; 0.25 µM
  mean distance moved of exposed larvae: 14.9
[3]; 0.25 µM
  mean distance moved of exposed larvae: 1.49
[4]; 0.25 µM
  mean angular velocity of exposed larvae: 0.0445

## O=P(O)(O)C(F)(F)C(F)(F)C(F)(F)C(F)(F)C(F)(F)C(F)(F)Cl [6-Chloroperfluorohexylphosphonic acid]
[1]; 0.167 µM
  mean angular velocity of exposed larvae: 0.789
[2]; 0.167 µM
  mean distance moved of exposed larvae: 20.6
[3]; 0.167 µM
  mean distance moved of exposed larvae: 6.62
[4]; 0.167 µM
  mean angular velocity of exposed larvae: 0.212

## O=P(O)(O)C(F)(F)C(F)(F)C(F)(F)C(F)(F)C(F)(F)C(F)(F)C(F)(F)C(F)(F)Cl [8-Chloroperfluorooctylphosphonic acid]
[1]; 0.167 µM
  mean angular velocity of exposed larvae: 0.9
[2]; 0.167 µM
  mean distance moved of exposed larvae: 24.4
[3]; 0.167 µM
  mean distance moved of exposed larvae: 7.53
[4]; 0.167 µM
  mean angular velocity of exposed larvae: 0.234

## C[Si](C)(C)C(F)(F)C(F)(F)C(F)(F)F [(Heptafluoropropyl)trimethylsilane]
[1]; 0.015 µM
  mean angular velocity of exposed larvae: 0.571
[1]; 0.046 µM
  mean angular velocity of exposed larvae: 0.779
[1]; 0.14 µM
  mean angular velocity of exposed larvae: 0.81
[1]; 0.41 µM
  mean angular velocity of exposed larvae: 0.637
[1]; 1.23 µM
  mean angular velocity of exposed larvae: 0.884
[1]; 3.7 µM
  mean angular velocity of exposed larvae: 0.521
[1]; 11.1 µM
  mean angular velocity of exposed larvae: 0.685
[1]; 33.3 µM
  mean angular velocity of exposed larvae: 0.594
[1]; 66.5 µM
  mean angular velocity of exposed larvae: 0.949
[1]; 100 µM
  mean angular velocity of exposed larvae: 1.01
[2]; 0.015 µM
  mean distance moved of exposed larvae: 13.3
[2]; 0.046 µM
  mean distance moved of exposed larvae: 19.7
[2]; 0.14 µM
  mean distance moved of exposed larvae: 19.1
[2]; 0.41 µM
  mean distance moved of exposed larvae: 16.9
[2]; 1.23 µM
  mean distance moved of exposed larvae: 22.6
[2]; 3.7 µM
  mean distance moved of exposed larvae: 12.9
[2]; 11.1 µM
  mean distance moved of exposed larvae: 18.6
[2]; 33.3 µM
  mean distance moved of exposed larvae: 15.3
[2]; 66.5 µM
  mean distance moved of exposed larvae: 25.7
[2]; 100 µM
  mean distance moved of exposed larvae: 24.3
[3]; 0.015 µM
  mean distance moved of exposed larvae: 1.23
[3]; 0.046 µM
  mean distance moved of exposed larvae: 1.25
[3]; 0.14 µM
  mean distance moved of exposed larvae: 1.98
[3]; 0.41 µM
  mean distance moved of exposed larvae: 1.51
[3]; 1.23 µM
  mean distance moved of exposed larvae: 1.46
[3]; 3.7 µM
  mean distance moved of exposed larvae: 0.916
[3]; 11.1 µM
  mean distance moved of exposed larvae: 2.09
[3]; 33.3 µM
  mean distance moved of exposed larvae: 1.5
[3]; 66.5 µM
  mean distance moved of exposed larvae: 1.57
[3]; 100 µM
  mean distance moved of exposed larvae: 2.09
[4]; 0.015 µM
  mean angular velocity of exposed larvae: 0.0325
[4]; 0.046 µM
  mean angular velocity of exposed larvae: 0.0534
[4]; 0.14 µM
  mean angular velocity of exposed larvae: 0.0675
[4]; 0.41 µM
  mean angular velocity of exposed larvae: 0.0607
[4]; 1.23 µM
  mean angular velocity of exposed larvae: 0.048
[4]; 3.7 µM
  mean angular velocity of exposed larvae: 0.0422
[4]; 11.1 µM
  mean angular velocity of exposed larvae: 0.0925
[4]; 33.3 µM
  mean angular velocity of exposed larvae: 0.0521
[4]; 66.5 µM
  mean angular velocity of exposed larvae: 0.0503
[4]; 100 µM
  mean angular velocity of exposed larvae: 0.0731
